Measurements from ChEMBL document CHEMBL1909046, “DrugMatrix in vitro pharmacology data”.

Experiments:
[1] = target: C-C chemokine receptor type 5 (Homo sapiens, UniProt P51681); type: cell membranes, HEK293, Membrane; settings: hek293; further: in other assays of this panel Not Active means under 50% inhibition at 10 µM
Melanocortin receptor 5 = Melanocortin receptor 5 (Homo sapiens, UniProt P33032); type: cell membranes, HEK293, Membrane; further: in other assays of this panel Not Active means under 50% inhibition at 10 µM
[2] = target: T1, Polyunsaturated fatty acid lipoxygenase ALOX15 (Oryctolagus cuniculus, UniProt P12530); assay: biochemical; type: tissue-based, Reticulocytes; settings: reticulocytes;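 further: inhibition of 15-lipoxygenase enzyme activity measured with linoleic acid as the substrate; in other assays of this panel Not Active means under 50% inhibition at 10 µM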
T1 sequence (P12530 whole entry): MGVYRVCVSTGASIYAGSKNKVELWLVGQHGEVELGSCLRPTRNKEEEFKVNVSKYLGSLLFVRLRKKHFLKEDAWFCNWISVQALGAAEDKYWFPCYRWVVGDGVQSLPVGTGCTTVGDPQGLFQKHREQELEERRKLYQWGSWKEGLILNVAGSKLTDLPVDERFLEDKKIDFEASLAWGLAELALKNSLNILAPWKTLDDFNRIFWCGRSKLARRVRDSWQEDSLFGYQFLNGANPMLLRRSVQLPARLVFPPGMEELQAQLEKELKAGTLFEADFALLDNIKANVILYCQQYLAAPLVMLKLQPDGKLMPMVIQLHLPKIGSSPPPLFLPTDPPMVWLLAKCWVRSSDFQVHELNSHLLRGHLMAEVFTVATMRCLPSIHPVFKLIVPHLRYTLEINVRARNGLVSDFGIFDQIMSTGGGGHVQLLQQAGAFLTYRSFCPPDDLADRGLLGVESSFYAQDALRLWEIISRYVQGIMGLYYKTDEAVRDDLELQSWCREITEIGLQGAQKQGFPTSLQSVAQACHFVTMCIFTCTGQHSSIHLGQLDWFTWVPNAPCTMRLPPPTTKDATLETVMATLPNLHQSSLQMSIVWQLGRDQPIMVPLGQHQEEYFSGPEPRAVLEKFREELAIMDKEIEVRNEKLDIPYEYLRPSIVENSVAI

[3] = target: T2, Nitric oxide synthase, inducible (Mus musculus, UniProt P29477); design: species or system Escherichia coli;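 further: inhibition of iNOS enzyme activity measured with L-arginine as substrate; in other assays of this panel Not Active means under 50% inhibition at 10 µM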
T2 sequence (P29477 whole entry): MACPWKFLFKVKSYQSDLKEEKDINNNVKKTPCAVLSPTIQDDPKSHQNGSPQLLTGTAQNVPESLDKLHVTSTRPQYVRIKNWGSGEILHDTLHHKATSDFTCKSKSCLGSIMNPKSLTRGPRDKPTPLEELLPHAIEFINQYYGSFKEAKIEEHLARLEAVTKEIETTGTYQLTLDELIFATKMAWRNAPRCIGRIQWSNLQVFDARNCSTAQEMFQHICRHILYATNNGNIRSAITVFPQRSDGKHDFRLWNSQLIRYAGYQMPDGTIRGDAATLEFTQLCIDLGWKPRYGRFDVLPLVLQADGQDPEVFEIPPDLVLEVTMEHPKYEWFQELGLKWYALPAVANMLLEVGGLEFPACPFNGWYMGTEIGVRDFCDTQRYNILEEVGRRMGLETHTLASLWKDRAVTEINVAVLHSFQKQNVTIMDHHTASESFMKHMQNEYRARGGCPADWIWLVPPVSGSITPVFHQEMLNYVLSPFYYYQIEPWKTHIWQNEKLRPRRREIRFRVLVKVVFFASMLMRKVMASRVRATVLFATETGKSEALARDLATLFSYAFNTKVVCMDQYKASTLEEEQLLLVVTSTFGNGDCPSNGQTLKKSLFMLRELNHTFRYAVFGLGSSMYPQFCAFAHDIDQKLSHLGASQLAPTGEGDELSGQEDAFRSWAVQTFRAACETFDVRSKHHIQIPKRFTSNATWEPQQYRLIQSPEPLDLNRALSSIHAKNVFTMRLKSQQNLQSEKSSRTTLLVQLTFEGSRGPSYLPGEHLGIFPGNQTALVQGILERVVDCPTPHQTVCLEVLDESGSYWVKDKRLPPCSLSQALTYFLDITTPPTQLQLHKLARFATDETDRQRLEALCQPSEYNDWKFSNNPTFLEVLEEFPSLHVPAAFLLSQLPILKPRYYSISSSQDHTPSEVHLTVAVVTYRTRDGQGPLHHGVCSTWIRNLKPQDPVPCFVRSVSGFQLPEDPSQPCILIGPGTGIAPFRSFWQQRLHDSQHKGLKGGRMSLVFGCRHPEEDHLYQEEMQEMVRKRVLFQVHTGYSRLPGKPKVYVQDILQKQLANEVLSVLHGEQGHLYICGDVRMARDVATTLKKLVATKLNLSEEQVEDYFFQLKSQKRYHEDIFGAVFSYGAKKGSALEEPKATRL

D(1A) dopamine receptor = D(1A) dopamine receptor (Homo sapiens, UniProt P21728); assay: DRUGMATRIX: Dopamine D1 radioligand binding (ligand: [3H] SCH-23390); type: cell membranes, CHO, Membrane; settings: cho; Not Active = under 50% inhibition at 10 µM
[4] = DRUGMATRIX: Calcium Channel Type L, Dihydropyridine radioligand binding (ligand: [3H] Nitrendipine); type: cell membranes, Rattus norvegicus, Wistar, Cerebral cortex, Membrane; settings: Not Active = under 50% inhibition at 10 µM
Mu-type opioid receptor = Mu-type opioid receptor (Homo sapiens, UniProt P35372); assay: DRUGMATRIX: Opiate mu (OP3, MOP) radioligand binding (ligand: [3H] Diprenorphine); type: cell membranes, CHO-K1, Membrane; settings: cho-k1; Not Active = under 50% inhibition at 10 µM
Mu-type opioid receptor, sequence (P35372 whole entry): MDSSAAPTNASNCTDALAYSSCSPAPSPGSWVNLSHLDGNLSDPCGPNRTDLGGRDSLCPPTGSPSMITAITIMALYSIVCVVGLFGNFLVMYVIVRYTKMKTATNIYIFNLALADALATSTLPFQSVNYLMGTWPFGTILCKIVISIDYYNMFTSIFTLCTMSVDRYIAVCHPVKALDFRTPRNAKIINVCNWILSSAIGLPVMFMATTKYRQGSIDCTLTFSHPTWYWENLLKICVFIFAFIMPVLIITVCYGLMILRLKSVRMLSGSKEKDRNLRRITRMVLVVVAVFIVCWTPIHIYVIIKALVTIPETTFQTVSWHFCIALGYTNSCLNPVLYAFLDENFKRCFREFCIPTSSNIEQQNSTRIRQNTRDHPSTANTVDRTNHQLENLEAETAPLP

C-C chemokine receptor type 5, sequence (P51681 whole entry): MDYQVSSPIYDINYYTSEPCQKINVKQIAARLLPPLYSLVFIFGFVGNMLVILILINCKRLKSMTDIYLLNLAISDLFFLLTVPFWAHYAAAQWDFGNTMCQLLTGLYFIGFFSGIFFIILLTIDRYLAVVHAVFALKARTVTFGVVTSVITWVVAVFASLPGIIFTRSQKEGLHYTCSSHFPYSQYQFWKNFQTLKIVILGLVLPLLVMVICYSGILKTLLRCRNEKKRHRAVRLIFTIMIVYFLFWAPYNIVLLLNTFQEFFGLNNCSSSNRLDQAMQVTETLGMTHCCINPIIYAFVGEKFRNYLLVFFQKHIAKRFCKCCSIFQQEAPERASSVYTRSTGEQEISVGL
Melanocortin receptor 5, sequence (P33032 whole entry): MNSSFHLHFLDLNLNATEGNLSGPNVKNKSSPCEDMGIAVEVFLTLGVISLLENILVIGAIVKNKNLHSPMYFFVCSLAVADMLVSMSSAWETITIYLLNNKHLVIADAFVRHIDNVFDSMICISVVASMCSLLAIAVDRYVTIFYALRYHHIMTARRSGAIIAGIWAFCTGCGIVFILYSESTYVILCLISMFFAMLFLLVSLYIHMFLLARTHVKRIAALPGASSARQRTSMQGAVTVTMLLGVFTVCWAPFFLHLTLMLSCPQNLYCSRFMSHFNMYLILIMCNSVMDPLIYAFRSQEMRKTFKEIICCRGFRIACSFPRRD
D(1A) dopamine receptor, sequence (P21728 whole entry): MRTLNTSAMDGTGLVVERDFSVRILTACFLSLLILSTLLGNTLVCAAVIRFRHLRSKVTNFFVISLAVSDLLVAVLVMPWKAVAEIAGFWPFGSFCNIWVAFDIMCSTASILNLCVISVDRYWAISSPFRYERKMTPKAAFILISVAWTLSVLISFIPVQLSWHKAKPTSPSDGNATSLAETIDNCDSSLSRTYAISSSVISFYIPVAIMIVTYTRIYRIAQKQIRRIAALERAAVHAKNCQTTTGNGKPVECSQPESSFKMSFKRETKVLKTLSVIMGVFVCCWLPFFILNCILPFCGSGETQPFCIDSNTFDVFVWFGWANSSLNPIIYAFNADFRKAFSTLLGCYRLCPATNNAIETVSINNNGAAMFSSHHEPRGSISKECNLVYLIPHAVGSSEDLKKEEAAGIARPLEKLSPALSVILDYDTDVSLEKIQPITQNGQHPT

Row | Molecule | IC50 [1] | IC50 (Melanocortin receptor 5; hek293) | IC50 [2] | IC50 [3] | IC50 (D(1A) dopamine receptor) | IC50 [4] | Ki [4] | Ki [1] | Ki (Melanocortin receptor 5; hek293) | Ki [2] | Ki [3] | Ki (D(1A) dopamine receptor) | IC50 (Mu-type opioid receptor) | IC50 (Melanocortin receptor 5; read-out: IC50) [µM] | Ki (Melanocortin receptor 5; read-out: Ki) [µM]
1 | Nc1ccc(Cc2ccc(N)cc2)cc1 | Not Active | Not Active | Not Active | Not Active | Not Active | Not Active | Not Active |  |  |  |  |  |  |  | 
2 | C=CCN1CC[C@]23c4c5ccc(O)c4O[C@H]2/C(=N/N=C2\CC[C@@]4(O)[C@H]6Cc7ccc(O)c8c7[C@@]4(CCN6CC=C)[C@H]2O8)CC[C@@]3(O)[C@H]1C5 [NALOXONAZINE] | Not Active | Not Active | Not Active | Not Active | Not Active | Not Active | Not Active |  |  |  |  |  |  |  | 
3 | C=C(Cl)Cl [1,1-DICHLOROETHENE] | Not Active | Not Active | Not Active | Not Active | Not Active | Not Active | Not Active |  |  |  |  |  |  |  | 
4 | CCN1C[C@]2(COC)[C@H](O)C[C@H](OC)[C@@]34[C@@H]5C[C@@]6(O)[C@H](OC(=O)c7ccccc7)[C@@H]5[C@@](OC(C)=O)([C@@H]([C@H](OC)[C@H]23)[C@@H]14)[C@@H](O)[C@@H]6OC [ACONITINE] | Not Active | Not Active | Not Active | Not Active | Not Active | Not Active | Not Active |  |  |  |  |  |  |  | 
5 | POVIDONE | Not Active | Not Active | Not Active | Not Active | Not Active | Not Active | Not Active | Not Active | Not Active | Not Active | Not Active | Not Active |  |  | 
6 | C=CCO [ALLYL ALCOHOL] | Not Active | Not Active | Not Active | Not Active | Not Active | Not Active | Not Active |  |  |  |  |  |  |  | 
7 | CHROMIC CHLORIDE | Not Active | Not Active | Not Active | Not Active | Not Active | Not Active | Not Active | Not Active | Not Active | Not Active | Not Active | Not Active |  |  | 
8 | Clc1cc(Cl)c(OCC#CI)cc1Cl [HALOPROGIN] | Not Active | Not Active | Not Active | Not Active |  | Not Active | Not Active |  |  |  |  |  | Not Active |  | 
9 | ClC1=C(Cl)[C@]2(Cl)[C@@H]3[C@@H]4C[C@@H]([C@H]5O[C@@H]45)[C@@H]3[C@@]1(Cl)C2(Cl)Cl [DIELDRIN] | Not Active | Not Active | Not Active | Not Active | Not Active | Not Active | Not Active |  |  |  |  |  |  |  | 
10 | CARBOXYMETHYLCELLULOSE | Not Active | Not Active | Not Active | Not Active | Not Active | Not Active | Not Active | Not Active | Not Active | Not Active | Not Active | Not Active |  |  | 
11 | COPPER(II) OXIDE | Not Active | Not Active | Not Active | Not Active | Not Active | Not Active | Not Active | Not Active | Not Active | Not Active | Not Active | Not Active |  |  | 
12 | O=C(O)CNCP(=O)(O)O [GLYPHOSATE] | Not Active | Not Active | Not Active | Not Active | Not Active | Not Active | Not Active |  |  |  |  |  |  |  | 
13 | COc1cc([C@@H]2c3cc4c(cc3[C@H](O)[C@H]3COC(=O)[C@H]23)OCO4)cc(OC)c1OC [PODOFILOX] | Not Active | Not Active | Not Active | Not Active | Not Active | Not Active | Not Active |  |  |  |  |  |  |  | 
14 | CC1(COc2ccc(CC3SC(=O)NC3=O)cc2)CCCCC1 (centres undefined) [CIGLITAZONE] | Not Active |  | Not Active | Not Active |  | Not Active | Not Active |  |  |  |  |  | Not Active | 28.6 | 26.8
